Columns and labels:
Maize [1] = assay: Pre-emergence test (Example B2), tolerance of useful plant; assay type: in vivo
Source text: (§1) The test plants are sown in plastics pots in standard soil. Directly after sowing the test compounds are applied by spraying, separately or in admixture, in the form of an aqueous suspension of the test compounds (Formulation Example F8, c) and d)) or in the form of an emulsion concentrate (Formulation Example F1, d)) in 500 l of water/ha. The rates of application conform to the optimum concentrations ascertained under field conditions and greenhouse conditions. The test plants are then cultivated in the greenhouse under optimum conditions. After 34 days' (Tables B2 to B5) and 41 days' (Table B6) test duration, the test is evaluated (% action, 100 % = plants have died, 0 % = no phytotoxic action). From 61 to 80 % (especially from 81 to 100 %) phytotoxicity indicates good to very good herbicidal action in weeds; from 0 to 15 % (especially from 0 to 5 %) phytotoxicity indicates good to very good tolerance in useful plants.

Abutilon = assay: Pre-emergence test (Example B2); assay type: in vivo
Source text: (§2) The expected herbicidal action E for a given combination of two herbicides can be calculated as follows (see COLBY, S.R., "Calculating synergistic and antagonistic response of herbicide combinations", Weeds 15, pages 20-22, 1967): E = X +(Y • (100 - X))/(100) [formula]
(§3) In the above formula: X = percentage growth inhibition in the case of treatment with the compound of formula A at a rate of application of p kg per hectare compared with the untreated control (= 0 %). Y = percentage herbicidal action in the case of treatment with one of the mixing partners at a rate of application of q kg per hectare compared with the untreated control. E = Expected herbicidal action (percentage herbicidal action compared with the untreated control) after treatment with the compounds of formulae A and the mixing partners at a rate of application of p + q kg of active ingredient per hectare.
as §1
(§4) Test plants: abutilon, bidens, euphorbia, ipomoea, sesbamia, xanthium, rottboellia, sida, Sorghum bicolor.

Bidens = assay: Pre-emergence test (Example B2); assay type: in vivo; conditions: 34 days
Source text: as §2, §3, §1, §4

Euphorbia = assay: Pre-emergence test (Example B2); assay type: in vivo
Source text: as §2, §3, §1, §4

Ipomoea = assay: Pre-emergence test (Example B2); assay type: in vivo
Source text: as §2, §3, §1, §4

Sesbania = assay: Pre-emergence test (Example B2); assay type: in vivo; conditions: 34 days
Source text: as §2, §3, §1, §4

Sida = assay: Pre-emergence test (Example B2); assay type: in vivo
Source text: as §2, §3, §1, §4

Xanthium = assay: Pre-emergence test (Example B2); assay type: in vivo; conditions: 34 days
Source text: as §2, §3, §1, §4

Brachiaria [2] = assay: Pre-emergence test (Example B2); assay type: in vivo; conditions: 34 days
Source text: as §2, §3, §1

Brachiaria [3] = assay: Post-emergence test (Example B1); assay type: in vivo; conditions: 24 days
Source text: as §2, §3
(§5) The test plant seeds are grown to the 4- to 6-leaf stage under greenhouse conditions in plastics pots. The culture substrate used is a standard soil. At the 4- to 6-leaf stage the herbicides are applied separately and in admixture to the test plants. The test compounds are applied in the form of an aqueous suspension (Formulation Example F8, c)) in 500 l of water/ha. The rates of application conform to the optimum concentrations ascertained under field conditions and greenhouse conditions. Evaluation of the tests is carried out after 24 days. The following linear scale is used as a measure (% action): • 100 % = plants have died • 50 % = moderate action • 0 % = no phytotoxic action (as untreated control).
(§6) Test plants: brachiaria, cyperus, digitaria, echinochloa, panicum.

Digitaria = assay: Post-emergence test (Example B1); assay type: in vivo; conditions: 24 days
Source text: as §2, §3, §5, §6

Echinochloa = assay: Post-emergence test (Example B1); assay type: in vivo; conditions: 24 days
Source text: as §2, §3, §5, §6

Panicum = assay: Post-emergence test (Example B1); assay type: in vivo; conditions: 24 days
Source text: as §2, §3, §5, §6

Cyperus = assay: Post-emergence test (Example B1); assay type: in vivo; conditions: 24 days
Source text: as §2
In the above formula: X = percentage growth inhibition in the case of treatment with the compound of formula A at a rate of application of p kg per hectare compared with the untreated control (= 0 %). Y = percentage herbicidal action in the case of treatment with one of the mixing partners at a rate of application of q kg per hectare compared with the untreated control.
as §5, with “days.” for “days. The following linear scale is used as a measure (% action): • 100 % = plants have died • 50 % = moderate action • 0 % = no phytotoxic action (as untreated control).”
as §6

Rottboellia = assay: Pre-emergence test (Example B2); assay type: in vivo
Source text: as §2, §3, §1, §4

Sorghum bic. = assay: Pre-emergence test (Example B2); assay type: in vivo, Sorghum bicolor; conditions: 8 g active ingredient/ha, 41 days
Source text: as §2, §3
The test plants are sown in plastics pots in standard soil. Directly after sowing the test compounds are applied by spraying, separately or in admixture, in the form of an aqueous suspension of the test compounds (Formulation Example F8, c) and d)) or in the form of an emulsion concentrate (Formulation Example F1, d)) in 500 l of water/ha. […] After 34 days' (Tables B2 to B5) and 41 days' (Table B6) test duration, the test is evaluated (% action, 100 % = plants have died, 0 % = no phytotoxic action). […]

Maize [4] = assay: Breakdown in treated useful plants; conditions: after application of the compositions; especially maize; compared with metolachlor
[5] = 125 g active ingredient/ha, 34 days
[6] = 250 g active ingredient/ha, 34 days
[7] = 500 g active ingredient/ha, 34 days
[8] = 150 g active ingredient/ha, 34 days
[9] = 300 g active ingredient/ha, 34 days
[10] = 600 g active ingredient/ha, 34 days
[11] = 8 g active ingredient/ha, 41 days
[12] = 15 g active ingredient/ha, 34 days
[13] = 15 g active ingredient/ha, 41 days
[14] = 30 g active ingredient/ha, 34 days
[15] = 60 g active ingredient/ha, 34 days
[16] = 60 g active ingredient/ha, 41 days
[17] = 30 g active ingredient/ha, 41 days
[18] = 1000 g active ingredient/ha, 34 days

CCNc1nc(Cl)nc(NC(C)(C)C)n1 [Terb, terbuthylazine]
Herbicidal activity, Useful plant: Maize (Maize [1]; [5]): 0%
Herbicidal activity, Useful plant: Maize (Maize [1]; [6]): 0%
Herbicidal activity, Useful plant: Maize (Maize [1]; [7]): 0%
Herbicidal activity, Weed: Abutilon (Abutilon; [6]): 30%
Herbicidal activity, Weed: Abutilon (Abutilon; [7]): 90%
Herbicidal activity, Weed: Bidens (Bidens; 125 g active ingredient/ha): 0%
Herbicidal activity, Weed: Bidens (Bidens; 250 g active ingredient/ha): 60%
Herbicidal activity, Weed: Euphorbia (Euphorbia; [5]): 40%
Herbicidal activity, Weed: Euphorbia (Euphorbia; [6]): 70%
Herbicidal activity, Weed: Euphorbia (Euphorbia; [7]): 95%
Herbicidal activity, Weed: Ipomoea (Ipomoea; [5]): 0%
Herbicidal activity, Weed: Ipomoea (Ipomoea; [7]): 95%
Herbicidal activity, Weed: Sesbania (Sesbania; 250 g active ingredient/ha): 80%

CCc1cccc(C)c1N(C(=O)CCl)[C@@H](C)COC [Met-S, aRS,1'S(-)-N-(1'-methyl-2'-methoxyethyl)-N-chloroacetyl-2-ethyl-6-methylaniline]
Herbicidal activity, Useful plant: Maize (Maize [1]; [8]): 0%
Herbicidal activity, Useful plant: Maize (Maize [1]; [9]): 10%
Herbicidal activity, Useful plant: Maize (Maize [1]; [10]): 10%
Herbicidal activity, Weed: Abutilon (Abutilon; [8]): 0%
Herbicidal activity, Weed: Abutilon (Abutilon; [9]): 10%
Herbicidal activity, Weed: Euphorbia (Euphorbia; [8]): 0%
Herbicidal activity, Weed: Euphorbia (Euphorbia; [9]): 0%
Herbicidal activity, Weed: Euphorbia (Euphorbia; [10]): 0%
Herbicidal activity, Weed: Sida (Sida; [8]): 0%
Herbicidal activity, Weed: Sida (Sida; [9]): 40%
Herbicidal activity, Weed: Xanthium (Xanthium; 300 g active ingredient/ha): 0%
Herbicidal activity, Weed: Xanthium (Xanthium; 600 g active ingredient/ha): 20%
Herbicidal activity, Weed: Brachiaria (Brachiaria [2]; 150 g active ingredient/ha): 20%
Herbicidal activity, Weed: Brachiaria (Brachiaria [2]; 300 g active ingredient/ha): 50%

C=CCOC(=O)C(C)(C)OC(=O)c1cc(-n2c(=O)cc(C(F)(F)F)n(C)c2=O)ccc1Cl [A]
Herbicidal activity, Weed: Brachiaria (Brachiaria [3]; 100 g active ingredient/ha): 10%
Herbicidal activity, Weed: Brachiaria (Brachiaria [3]; 200 g active ingredient/ha): 15%
Herbicidal activity, Weed: Digitaria (Digitaria; 50 g active ingredient/ha): 85%
Herbicidal activity, Weed: Digitaria (Digitaria; 100 g active ingredient/ha): 90%
Herbicidal activity, Weed: Digitaria (Digitaria; 200 g active ingredient/ha): 90%
Herbicidal activity, Weed: Echinochloa (Echinochloa; 100 g active ingredient/ha): 15%
Herbicidal activity, Weed: Echinochloa (Echinochloa; 200 g active ingredient/ha): 45%
Herbicidal activity, Weed: Panicum (Panicum; 50 g active ingredient/ha): 50%
Herbicidal activity, Weed: Panicum (Panicum; 200 g active ingredient/ha): 70%
Herbicidal activity, Weed: Cyperus (Cyperus; 50 g active ingredient/ha): 50%
Herbicidal activity, Weed: Cyperus (Cyperus; 100 g active ingredient/ha): 60%
Herbicidal activity, Useful plant: Maize (Maize [1]; [11]): 0%
Herbicidal activity, Useful plant: Maize (Maize [1]; [12]): 0%
Herbicidal activity, Useful plant: Maize (Maize [1]; [13]): 0%
Herbicidal activity, Useful plant: Maize (Maize [1]; [14]): 10%
Herbicidal activity, Useful plant: Maize (Maize [1]; [15]): 10%
Herbicidal activity, Useful plant: Maize (Maize [1]; [16]): 40%
Herbicidal activity, Weed: Abutilon (Abutilon; [11]): 50%
Herbicidal activity, Weed: Abutilon (Abutilon; [12]): 20%
Herbicidal activity, Weed: Abutilon (Abutilon; [13]): 80%
Herbicidal activity, Weed: Abutilon (Abutilon; [14]): 40%
Herbicidal activity, Weed: Bidens (Bidens; 15 g active ingredient/ha): 20%
Herbicidal activity, Weed: Bidens (Bidens; 30 g active ingredient/ha): 30%
Herbicidal activity, Weed: Bidens (Bidens; 60 g active ingredient/ha): 90%
Herbicidal activity, Weed: Euphorbia (Euphorbia; [12]): 0%
Herbicidal activity, Weed: Euphorbia (Euphorbia; [13]): 85%
Herbicidal activity, Weed: Euphorbia (Euphorbia; [14]): 90%
Herbicidal activity, Weed: Ipomoea (Ipomoea; [14]): 20%
Herbicidal activity, Weed: Ipomoea (Ipomoea; [17]): 0%
Herbicidal activity, Weed: Ipomoea (Ipomoea; [15]): 30%
Herbicidal activity, Weed: Rottboellia (Rottboellia; [17]): 80%
Herbicidal activity, Weed: Rottboellia (Rottboellia; [15]): 30%
Herbicidal activity, Weed: Rottboellia (Rottboellia; [16]): 70%
Herbicidal activity, Weed: Sesbania (Sesbania; 60 g active ingredient/ha): 50%
Herbicidal activity, Weed: Sida (Sida; [11]): 40%
Herbicidal activity, Weed: Sida (Sida; [12]): 80%
Herbicidal activity, Weed: Xanthium (Xanthium; 15 g active ingredient/ha): 0%
Herbicidal activity, Weed: Xanthium (Xanthium; 30 g active ingredient/ha): 0%
Herbicidal activity, Weed: Xanthium (Xanthium; 60 g active ingredient/ha): 20%
Herbicidal activity, Weed: Brachiaria (Brachiaria [2]; 60 g active ingredient/ha): 60%
Herbicidal activity, Weed: Sorghum bic. (Sorghum bic.): 0%
breakdown in the useful plants treated (Maize [4]): broken down more rapidly

CCc1cccc(C)c1N(C(=O)CCl)C(C)COC (racemic) [Met.rac., metolachlor]
Herbicidal activity, Useful plant: Maize (Maize [1]; [6]): 0%
Herbicidal activity, Useful plant: Maize (Maize [1]; [7]): 0%
Herbicidal activity, Useful plant: Maize (Maize [1]; [18]): 0%
Herbicidal activity, Weed: Abutilon (Abutilon; [7]): 20%
Herbicidal activity, Weed: Abutilon (Abutilon; [18]): 20%
Herbicidal activity, Weed: Bidens (Bidens; 1000 g active ingredient/ha): 30%
Herbicidal activity, Weed: Euphorbia (Euphorbia; [7]): 0%
Herbicidal activity, Weed: Ipomoea (Ipomoea; [18]): 0%
Herbicidal activity, Weed: Rottboellia (Rottboellia; [18]): 0%
Herbicidal activity, Weed: Sesbania (Sesbania; 1000 g active ingredient/ha): 60%
Herbicidal activity, Weed: Sida (Sida; [6]): 0%
Herbicidal activity, Weed: Sida (Sida; [7]): 50%

— patent EP0888055B1, “HERBICIDAL COMPOSITION AND METHOD OF WEED CONTROL” (Novartis AG, priority 1996, dated 1997)
